Format in all cases: biochemical
Experiment [1] addresses HCV genotype 1b NS3/4A protease (Hepatitis C virus genotype 1b, UniProt P26663). Nature of the experiment: fluorescence-based enzymatic assay, genotype 1b NS3/4A.
Experiment [2] deals with R155K NS3/4A genotype 1b (Hepatitis C virus genotype 1b, UniProt P26663, R1181K). As to the kind of experiment: enzymatic inhibition assay, drug-resistant mutant R155K of genotype 1b.
Experiment [3] has as its target HCV genotype 3a NS3/4A protease (Hepatitis C virus genotype 3a, UniProt Q81258). As to the kind of experiment: enzymatic inhibition assay, genotype 3a NS3/4A.
Experiment [4] has as its target A156S NS3/4A genotype 1b (Hepatitis C virus genotype 1b, UniProt P26663, A1182S). Nature of the experiment: enzymatic inhibition assay, drug-resistant mutant A156S of genotype 1b.
Experiment [5] addresses V36M NS3/4A genotype 1b (Hepatitis C virus genotype 1b, UniProt P26663, V1062M). Nature of the experiment: enzymatic inhibition assay, drug-resistant mutant V36M of genotype 1b.

Where two headings read alike, the source gives them in different places.

The values below come from article PMC6690791 (Bioorganic & medicinal chemistry letters, 2019).

For the compound `Cc1ccc(S(=O)(=O)Nc2ccccc2C(=O)Nc2nc(-c3cc(Cl)ccc3Cl)cs2)cc1` [F0325–0125], in experiment [1], the IC50 (commonly the concentration that inhibits the measured activity by half) was less than 2 µM. In addition, in experiment [2], the “inhibitory activity (IC50)” value is “did not retain activity”.

As for `Cc1ccc(S(=O)(=O)Nc2ccccc2C(=O)Nc2nc3c(Cl)ccc(Cl)c3s2)cc1` [F1813–0710], the results for the IC50 in experiment [1] and in experiment [3] were less than 2 µM and 14 µM, respectively. For the same compound, the “inhibitory activity (IC50)” value in experiment [2], in experiment [4] and in experiment [5] was “maintains its activities” throughout.

As to `Cc1cc(NC(=O)Cc2csc(NS(=O)(=O)c3ccccc3)n2)ccc1Br` [F2322–0885], in experiment [3] (genotype 3a NS3/4A), the IC50 result is on record as “did not have any effect”.

As for `Cc1ccc(S(=O)(=O)Nc2ccccc2C(=O)Nc2nc3c(cc4c5c(cccc53)CC4)s2)cc1` [F0816–0111], the IC50 in experiment [1] lay within 2 to 5 µM. For the same compound, in experiment [2], the “inhibitory activity (IC50)” value is listed as “did not retain activity”.

On to `Cc1ccc(S(=O)(=O)Nc2ccccc2C(=O)Nc2nc3c(C)cc(C)cc3s2)cc1` [F0325–0086], for which the IC50 in experiment [1] was in the range of 2 to 5 µM.

`Cc1ccc(S(=O)(=O)Nc2ccccc2C(=O)Nc2nc3c(ccc4ccccc43)s2)cc1` [F0325–0093] gave an IC50 in experiment [1] of 5 to 10 µM.

`Cc1c(Cl)cccc1NC(=O)Cc1csc(NS(=O)(=O)c2ccccc2)n1` [F2322–0877]: the IC50 in experiment [1] is 5 to 10 µM.

For the compound `Cc1ccc(S(=O)(=O)Nc2ccccc2C(=O)Nc2nc3ccc4ccccc4c3s2)cc1` [F0325–0092], the IC50 in experiment [1] lay within 2 to 5 µM.

In experiment [1], `CSc1cccc(NC(=O)Cc2csc(NS(=O)(=O)c3ccccc3)n2)c1` [F2322–0904] displayed an IC50 of 5 to 10 µM.

In experiment [1], `Cc1ccc(S(=O)(=O)Nc2ccccc2C(=O)Nc2nc3c(C)ccc(Cl)c3s2)cc1` [F1813–0711] came in with an IC50 of 5 to 10 µM. In experiment [2], the “inhibitory activity (IC50)” value is “did not retain activity”.

In experiment [1], `Cc1ccc(S(=O)(=O)Nc2ccccc2C(=O)Nc2nc3ccc4sc(C)nc4c3s2)cc1` [F0725–0019] gave an IC50 of 2 to 5 µM.

In experiment [1], `Cc1ccc(S(=O)(=O)Nc2ccccc2C(=O)Nc2nc3c(Br)cccc3s2)cc1` [F1822–0567] showed an IC50 of 10 to 100 µM.

In turn, `CSc1cccc2sc(NC(=O)c3ccccc3NS(=O)(=O)c3ccc(C)cc3)nc12` [F2730–0247] came in with an IC50 in experiment [1] of 10 to 100 µM.
